± gives the expanded uncertainty stated by the source.
Experiments:
[1] = Molar enthalpy of transition or fusion; details: DSC
[2] = molar enthalpy of vaporization or sublimation; details: 298 K; Liquid; DSC

For CCCCCCCCCCCCCCCCCCCCCC(=O)O [docosanoic acid], the “Molar enthalpy of transition or fusion” value ([1]; Crystal 2) was 0.853 ± 0.148 kcal/mol, the “Molar enthalpy of transition or fusion” value ([1]; Crystal) was 15.8 ± 0.335 kcal/mol and the molar enthalpy [2] was 37 ± 3.59 kcal/mol. For the same molecule, the Triple point temperature (Crystal 2, DTA) was 340.9 ± 0.5 K and the Normal melting temperature (Crystal, DSC/DTA) was 79.2 ± 0.4 °C.

Source: the NIST ThermoML archive (doi:10.1021/je300902c)
